# Assay results as given in patent US5880076A, “Compositions comprising glycacarbamate and glycaurea compounds” (Lever Brothers Company, Division of Conopco, Inc., priority 1997, dated 1999).
# Key:
# [1] = Critical Micelle Concentration (micelle formation); assay type: physicochemical; details: 40° C.
# Excerpt: The critical micelle concentration (CMC) is defined as the concentration at which a surfactant forms micelles in aqueous solution. […] A necessary and sufficient condition for CMC formation and surface tension reduction is the presence of both hydrophilic and hydrophobic functional groups. The hydrophilic portion provides strong interaction between the surfactant at the interface and with the surrounding water phase. The hydrophobic portion provides spontaneous adsorption of the surfactant at the interface and strong interaction with the adjacent air phase. If any of these functions are not performed, then CMC formation and surface tension reduction will not occur. For significant surface activity, a properly balanced hydrophilic and hydrophobic character is essential.
# [2] = Surface Tension Reduction; assay type: physicochemical; details: 40° C.
# Excerpt: An important characteristic feature that surfactants have is the tendency for them to absorb at the water/air interface in an oriented manner, thereby altering the interfacial free energy of that surface. The surface free energy per unit area or surface tension (γ), is a measure of this work and may be considered as the minimum amount of work required to bring sufficient surfactant molecules to the surface.
# [3] = Viscosity Modification of Sodium Lauryl Sulfate prototype detergent compositions; assay type: physicochemical; details: for Appearance (viscosity) / Viscosity Increase: 15.0% sodium lauryl sulfate; for Viscosity Increase: 22° C.; for viscosity increase (in words): compared with D-glucose
# Method: The prototype detergent compositions are as follows:
# (§1) Detergent Compositions Comprising Sodium
# (§2) Lauryl Sulfate and Glycacarbamate Compounds
# N-Dodecyl D-Glucocarbamate
# 2.0-7.0% Foam Stabilizer/Thickener
# 2.0% Viscosity Cobuilder
# (§3) Lauryl Sulfate and Glycaurea Compounds
# (§4) The above formulations were prepared by admixing the above ingredients in listed order and heating the mixture to about 80° C. with rapid stirring. The mixture was then cooled to about 40° C., placed in a clear jar and stored at room temperature.
# It is well known that the viscosity of a liquid composition comprision of anionic surfactant can be modified by the addition of inorganic salts, such as sodium chloride. However, in the absence of an organic modifier, high levels of salt may be necessary to achieve the required viscosity which may lead to problems of storage at cold temperature or even salting our certain ingrediets. In practice, however, the viscosity of a liquid compositionis modified by the simultaneous addition of thickener and small amounts of inorganic salt (viscosity cobuilder). The combined effect is greater than either one alone. The viscosity of the above prototype detergent compositions comprising various amounts of glycacarbamate/urea compound are as follows: […]
# [4] = Clarity Enhancement of prototype detergent compositions; assay type: physicochemical; details: detergent formulation
# Method: The formulations were placed in a clear jar and stored for 1 month. The prototype detergent compositions are as follows:
# as §1, §2
# N-Coconut D-Glucocarbamate
# 0.5-4.0% Foam Stabilizer/Thickener
# as §3, §4
# For a clear detergent formulation to be successful it must have good shelf life and should not become turbid or produce sedimentation upon standing.
# [5] = Flow aids: water uptake and appearance of intimate admixtures; assay type: physicochemical; details: intimate admixtures with ODS, SCMOS, CP-5 or CP-7
# Excerpt: It is known in the are that certain ingredients are hygroscopic in nature and liquify after exposure to moisture after a few days. […] Samples were removed periodically, weighed and returned to R. H. chamber. Percent water uptake was based on the amound of builder present. % H2 O Uptake=grams of water absorbed/grams of builder×100 Identical mixtures of ODS, SCMOS, CP-5 or CP-7 and methyl α-D-glucose-6-O-monolaurate (c12 Mgluc), dodecyl β-D-glucopyranoside (C12 Gluc), dodecyl β-D-maltoside (C12 Malt), D-glucose or D-sorbitol were also prepared and are used for comparison. When the comparative sugar surfactant of monosacchardie are used, percent water uptake was based on the amount of saccharide present. % H2 O Uptake=grams of water absorbed/grams of saccharide×100
# [6] = Water Solubility and Krafft Point (0.1% solution in water, 40° C.); details: 40° C.
# Excerpt: The temperature at which a surfactant forms micelles instead of precipitates is referred to as the Krafft point (Tk), and at or below this temperature the solubility of a surfactant becomes equal to its CMC (numerical value at which micelles are formed).
# [7] = Viscosity Enhancement/Foam Stabilization (Brookfield Digital Viscometer); details: for Foam Stability / viscosity increase from normal viscosity / Viscosity (Centipoise): 4.0% thickener; for Viscosity (Centipoise): 22° C.; for viscosity enhancement and foam stabilization (comparison in words): compared with lauramide DEA, cocoamide MEA, Neodol 91-6 and D-glucose
SMILES,CMC at 40° C. (micelle formation) [1],Surface tension reduction (γ) at 40° C. [2],Appearance (viscosity) ([3]; 2.0% thickener),Viscosity Increase ([3]; 2.0% thickener),Appearance (viscosity) ([3]; 4.0% thickener),Viscosity Increase ([3]; 4.0% thickener),Appearance (viscosity) ([3]; 7.0% thickener),Viscosity Increase ([3]; 7.0% thickener),viscosity increase (in words) [3],clarity (in words) [4],handling and flowing characteristics (in words) [5],H2O Solubility at 40° C. [6],Krafft point (Tk) [6],Foam Stability [7],viscosity increase from normal viscosity [7],Viscosity (Centipoise) [7],viscosity enhancement and foam stabilization (comparison in words) [7],also measured
CCCCCCCCCCCCN(C[C@H](O)[C@@H](O)[C@H](O)[C@H](O)CO)C(N)=O [N-Dodecyl D-Glucourea],Yes,Yes,Slightly Viscous,Yes,Viscous,Yes,Very Viscous,Yes,increases the viscosity of that composition more effectively than D-glucose,clear without sedimentation,improved the handling and flowing characteristics,Yes,Below Tk,Yes,99-104 times,2295 Centipoise,"enhance viscosity and stabilze foam compartively to lauramide diethanolamine (DEA), but better than cocoamide menoethanolamine (MEA), Neodol 91-6 (C9 -C11 alcohol ethoxylate with 6 moles of ethylene oxide) and D-glucose",CMC at 40° C. (micelle formation) ([1]; listed as M): do not form micelles; Surface tension reduction (γ) at 40° C. ([2]; listed as M): do not significantly reduce the surface tension of water; H2O Solubility at 40° C. ([6]; listed as M): insoluble in water; Foam Stability ([7]; listed as N-dodecyl D-glucourea): stabilize foam
CCCCCCCCCCCCN1C[C@H](O)[C@H]([C@H](O)[C@H](O)CO)OC1=O [N-Dodecyl D-Glucocarbamate],Yes,Yes,Slightly Viscous,Yes,Viscous,Yes,Very Viscous,Yes,increases the viscosity of that composition more effectively than D-glucose,clear without sedimentation,improved the handling and flowing characteristics,Yes,Below Tk,Yes,99-104 times,2176 Centipoise,"enhance viscosity and stabilze foam compartively to lauramide diethanolamine (DEA), but better than cocoamide menoethanolamine (MEA), Neodol 91-6 (C9 -C11 alcohol ethoxylate with 6 moles of ethylene oxide) and D-glucose",Foam Stability ([7]; listed as N-dodecyl D-glucocarbamate): stabilize foam
